Where a name gives a salt, the structure may show the parent alone.
How the values were obtained:
[1] = test system: HeLa; assay: HeLa toxicity: nuclei-count effect normalised to DMSO (DMSO = 0); higher = more features changed / larger toxic effect; settings: incubation time: 24h incubation
[2] = test system: HepG2; assay: HepG2 toxicity (resazurin), effect normalised to DMSO (DMSO = 0); higher = more features changed / larger toxic effect; settings: incubation time: 70h incubation
[3] = test system: human spermatozoa; assay: viability fold change, 1 - (PI-positive fraction / DMSO median); higher = more of the measured sperm population than DMSO, for viability, fewer PI-positive (dead) cells than DMSO; settings: incubation time: 3h, non-capacitating
[4] = test system: HeLa; assay: Cell Painting percent induction (share of features beyond 2 z-scores vs DMSO); higher = more features changed / larger toxic effect; extreme values may be limits of the assay; settings: incubation time: 24h incubation
[5] = test system: human spermatozoa; assay: total motile sperm, percent change vs DMSO (non-capacitating); higher = more of the measured sperm population than DMSO, for viability, fewer PI-positive (dead) cells than DMSO
[6] = test system: human spermatozoa; assay: change in acrosome-reacted (PNA+) sperm vs DMSO, no agonist (capacitating); higher = more of the measured sperm population than DMSO, for viability, fewer PI-positive (dead) cells than DMSO; settings: incubation time: 3h
[7] = test system: human spermatozoa; assay: acrosome-reacted (PNA+) sperm after agonist cocktail, percent change vs DMSO (capacitating); higher = more of the measured sperm population than DMSO, for viability, fewer PI-positive (dead) cells than DMSO; settings: incubation time: 3h, capacitating + agonist cocktail 1h
[8] = test system: human spermatozoa; assay: hyperactivated motile sperm, percent change vs DMSO (capacitating); higher = more of the measured sperm population than DMSO, for viability, fewer PI-positive (dead) cells than DMSO; settings: incubation time: 30min incubation
[9] = test system: human spermatozoa; assay: progressively motile sperm, percent change vs DMSO (non-capacitating); higher = more of the measured sperm population than DMSO, for viability, fewer PI-positive (dead) cells than DMSO; extreme values may be limits of the assay
[10] = test system: human spermatozoa; assay: progressively motile sperm, percent change vs DMSO (capacitating); higher = more of the measured sperm population than DMSO, for viability, fewer PI-positive (dead) cells than DMSO; settings: incubation time: 30min incubation
[11] = incubation time: 10min incubation, 9.99 µM
[12] = incubation time: 10min incubation, 29.9 µM
[13] = incubation time: 3h incubation, 9.99 µM
[14] = incubation time: 3h incubation, 29.9 µM
[15] = incubation time: 6h incubation, 9.99 µM
[16] = incubation time: 6h incubation, 29.9 µM
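Throughout, for progressively motile sperm, percent change vs DMSO (non-capacitating): pooled live human sperm from at least 3 donors, tracked by automated microscopy in 0.5 s time-lapse movies, compounds at 10 and 30 µM, versus median of 16 DMSO wells per plate.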
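Throughout, for total motile sperm, percent change vs DMSO (non-capacitating): sperm pooled from at least 3 donors, tracked in 0.5 s time-lapse movies by automated microscopy after 10 min, 3 h or 6 h with compound at 10 or 30 µM.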

| SMILES | HeLa toxicity: nuclei-count effect normalised ([1]; 9.99 µM) [%] | HeLa toxicity: nuclei-count effect normalised ([1]; 29.9 µM) [%] | HepG2 toxicity ([2]; 10 µM) [%] | HepG2 toxicity ([2]; 30 µM) [%] | viability fold change ([3]; 9.99 µM) | viability fold change ([3]; 29.9 µM) | Cell Painting percent induction ([4]; 9.99 µM) [%] | Cell Painting percent induction ([4]; 29.9 µM) [%] | total motile sperm [5, 11] [%] | total motile sperm [5, 12] [%] | total motile sperm [5, 13] [%] | total motile sperm [5, 14] [%] | total motile sperm [5, 15] [%] | total motile sperm [5, 16] [%] | change in acrosome-reacted ([6]; 9.99 µM) [%] | change in acrosome-reacted ([6]; 29.9 µM) [%] | acrosome-reacted ([7]; 9.99 µM) [%] | acrosome-reacted ([7]; 29.9 µM) [%] | hyperactivated motile sperm ([8]; 9.99 µM) [%] | hyperactivated motile sperm ([8]; 29.9 µM) [%] | progressively motile sperm [9, 11] [%] | progressively motile sperm [9, 12] [%] | progressively motile sperm [9, 13] [%] | progressively motile sperm [9, 14] [%] | progressively motile sperm [9, 15] [%] | progressively motile sperm [9, 16] [%] | progressively motile sperm ([10]; 9.99 µM) [%] | progressively motile sperm ([10]; 29.9 µM) [%] |
| --- | --- | --- | --- | --- | --- | --- | --- | --- | --- | --- | --- | --- | --- | --- | --- | --- | --- | --- | --- | --- | --- | --- | --- | --- | --- | --- | --- | --- |
| CCOc1ccc(-c2nc(-c3cccc4c3CCC4NCCO)no2)cc1OCC (configuration not stated) [CYM 5442 hydrchloride] | -0.601 | 18 | 14.4 | 101 | -0.289 | -0.544 | 4.97 | 3.13 | 0.362 | -6.08 | 7.62 | -11.7 | 7.81 | -12.3 | 2.58 | 4.61 | 63 | 75.1 | 46.2 | 45.7 | 15.6 | 3.34 | 40 | 14.5 | 51.9 | 21.7 | 3.76 | 6.19 |
| Nc1nc(Cl)nc2c1ncn2[C@@H]1O[C@H](CO)[C@@H](O)[C@@H]1F [Clofarabine] | 47.6 | 47.5 | 12.2 | 19.6 | -0.45 | -0.516 | 0.396 | 0.54 | -6.85 | -9.16 | -17.7 | -20.8 | -25.1 | -28.8 | 1.07 | 0.866 | 87.1 | 104 | 206 | 262 | 21.7 | 19.3 | 50.7 | 35.6 | 46.2 | 29.9 | 10.5 | 12.9 |
| Clc1ccc(C(OCCN2CCCCC2)c2ccccc2)cc1 (configuration not stated) [Cloperastine hydrochloride] | 6.68 | 19.6 | 7.17 | 8.06 | -1.96 | -1.7 | 1.84 | 3.64 | 1.61 | 2.24 | -3.5 | -29.1 | -19.1 | -44 | 1.21 | 0.462 | -1.44 | -4.86 | -26.2 | -69.6 | 7.41 | -9.23 | -87 | -98.1 | -86.3 | -97.8 | 5.13 | -14.3 |
| CNS(=O)(=O)c1ccccc1Nc1nc(Nc2ccc(C3CCN(C)CC3)cc2OC)ncc1Cl [Compound 19] | 98.9 | 97.1 | 103 | 103 | -0.353 | -1.11 | 51.7 | 53.2 | -56.4 | -58.2 | -66.7 | -69.7 | -63.1 | -74.1 | 1.02 | 5.53 | -19.8 | 31.9 | -80.3 | -81.6 | -91.3 | -92.3 | -90.1 | -93.7 | -90.5 | -96 | -48.6 | -61.5 |
| CCOC(=O)CSc1nc(=O)c(NCC(=O)OC)n[nH]1 [Compound B4] | -3.67 | -5.81 | -2.06 | 5.66 | -0.743 | -0.817 | 0 | 0 | -1.27 | -2.9 | -1.69 | -8.87 | -5.02 | -14.2 | 0.981 | 1.58 | 78.6 | 102 | 141 | 283 | 0.38 | -0.636 | 7.69 | -26.4 | 4.42 | -27.1 | 3.54 | -5 |
| OCCN(CCO)c1nc(N2CCCCC2)c2nc(N(CCO)CCO)nc(N3CCCCC3)c2n1 [Dipyridamole] | 3.21 | 2 | -2.63 | 7.46 | -2.05 | -2.06 | 0.036 | 0.18 | 0.517 | -2.33 | -2.26 | -16 | -6.57 | -14.4 | 1.09 | 1.87 | 56.3 | 74.8 | 88.9 | 43.9 | 36 | 38.1 | 80.3 | 58.3 | 82.1 | 83.5 | 16.4 | 19.4 |
| CCN(CC)C(=S)SSC(=S)N(CC)CC [Disulfiram] | 16.7 | 49.8 | -2.95 | 20.2 | -0.587 | -1.58 | 0 | 0.576 | -80.8 | -91.5 | -94.3 | -91.5 | -88.6 | -93.2 | 16.4 | 16 | 86.5 | 13 | -82.7 | -88.4 | -96.4 | -100 | -100 | -99.9 | -99.3 | -100 | -96.3 | -99.9 |
| COc1ccc2nc([S@@+]([O-])Cc3ncc(C)c(OC)c3C)[nH]c2c1 [Esomeprazole] | -3.81 | -3.61 | -1.96 | 4.42 | 0.0722 | -0.272 | 0 | 0 | -4.34 | -3.89 | -8.86 | -9.65 | -8.85 | -15.2 | 0.624 | 1.41 | 25.4 | 50.1 | 72.4 | 123 | 11.4 | 21.1 | 37 | 43.5 | 50.4 | 35.7 | 15.2 | 19 |
| CC(C)C(C(=O)OC(C#N)c1cccc(Oc2ccccc2)c1)c1ccc(Cl)cc1 (configuration not stated) [Fenvalerate] | 8.15 | 4.61 | 6.05 | -6.97 | -0.675 | 0.413 | 0 | 0.036 | -12.2 | -13.5 | -9.13 | -13 | -6.57 | -13.4 | 1.05 | 0.945 | 16 | 11.8 | -11.7 | -10.3 | -11.9 | -13.7 | 3.76 | -3.88 | 11.3 | 5.45 | -16 | -21.3 |
